{"source": "patent US20230130144A1", "about": "“PHARMACEUTICAL COMBINATION AND USE THEREOF” (NATURAL MEDICINE INSTITUTE OF ZHEJIANG YANGSHENGTANG CO., …, priority 2020, published 2023)", "format_in_all_cases": "cell-based", "key": {"[1]": {"tested_on": "HOS human osteosarcoma cells", "experiment": "Cell count (Trypan Blue) viability, drug combination administration, HOS cells", "details": "24 h, read-out: cell viability", "experimental": "HEK293 cells, HOS human osteosarcoma cells and 143B human osteosarcoma cells were subcultured in an incubator at 37° C., 5% CO2 using a RPMI-1640 medium containing 10% fetal bovine serum (FBS).\n(§1) 10 μL was taken for counting.\n(3) After counting, the cells were diluted to 1×10^5 cells/ml.\n(§2) (5) After 24 h of dosing, the medium was discarded. […] The cells were digested for 5 min."}, "[2]": {"tested_on": "143B human osteosarcoma cells", "experiment": "Cell count (Trypan Blue) viability, drug combination administration, 143B cells", "details": "24 h; for viability at 20 µM / viability at 50 µM / viability at 10 µM: Homo sapiens, read-out: cell viability", "experimental": "as §1, §2"}, "MC38 colon cancer cells": {"tested_on": "MC38 colon cancer cells", "experiment": "Cell viability of colon cancer cells by the method of Example 1", "details": "Mus musculus", "experimental": "(§3) (6) After digestion, equivalent amounts of PBS were added into each well and mixed uniformly. Then, 10 μL/well of Trypan Blue solution was added and mixed uniformly. 10 μL of the well-mixed solution was taken and counted. In accordance with “Cell viability=Cell Count of Test Group/Cell Count of Control Group×100%”, the cell viability of various groups was calculated.\nFor example, as for MC38 colon cancer cells, the control group involves adding the solvent DMSO alone, the Nic group involves adding 1 μM of Niclosamide, the Vc group involves adding 0.5 mM of ascorbic acid, the Nic+Vc group involves adding 1 μM of Niclosamide and 0.5 mM of ascorbic acid."}, "DB lymphoma cells": {"tested_on": "DB lymphoma cells", "experiment": "Cell viability of lymphoma cells by the method of Example 1", "details": "Homo sapiens", "experimental": "as §3\nFor example, as for the DB lymphoma cells, the control group involves adding the solvent DMSO alone, the Vc group involves adding 2 mM of ascorbic acid, the low-dose Nic group involves adding 1 μM of Niclosamide, the low-dose Nic+Vc group involves adding 1 μM of Niclosamide and 2 mM of ascorbic acid, the high-dose Nic group involves adding 2 μM of Niclosamide, and the high-dose Nic+Vc group involves adding 2 μM of Niclosamide and 2 mM of ascorbic acid."}}, "note": "Several values for one entry are separate records, joined by “and”; a condition that tells them apart may be missing. Equal entries are not always repeated. Where two headings read alike, the source gives them in different places.", "data": [{"smiles": "COc1ccc2cc3[n+](cc2c1OC)CCc1cc2c(cc1-3)OCO2", "note": "[berberine]", "values": [{"measurement": "viability at 20 µM", "setting": "[1]; HOS", "result": 82, "unit": "%"}, {"measurement": "viability at 20 µM", "setting": "[2]; 143B", "result": 94, "unit": "%"}]}, {"smiles": "O=C1O[C@H]([C@@H](O)CO)C(O)=C1O", "note": "[ascorbic acid]", "values": [{"measurement": "viability at 500 µM", "setting": "MC38 colon cancer cells; MC-38, 0.5 mM ascorbic acid alone", "result": 105, "unit": "%"}, {"measurement": "viability at 2000 µM", "setting": "DB lymphoma cells; 2 mM ascorbic acid alone", "result": 76, "unit": "%"}]}, {"smiles": "CS(=O)(=O)c1ccc(C(=O)Nc2ccc(Cl)c(-c3ccccn3)c2)c(Cl)c1", "note": "[Vismodegib]", "values": [{"measurement": "viability at 50 µM", "setting": "[1]; HOS cells, single drug 50 μM", "result": 53, "unit": "%"}, {"measurement": "viability at 50 µM", "setting": "[2]; 143B cells, single drug 50 μM", "result": 60, "unit": "%"}]}, {"smiles": "Cc1c(C(=O)Nc2ccc(N3C[C@@H](C)O[C@@H](C)C3)nc2)cccc1-c1ccc(OC(F)(F)F)cc1", "note": "[Sonidegib]", "values": [{"measurement": "viability at 10 µM", "setting": "[1]; HOS", "result": 89, "unit": "%"}, {"measurement": "viability at 10 µM", "setting": "[2]; 143B", "result": 74, "unit": "%"}]}, {"smiles": "O=C1O[C@H]([C@@H](O)CO)C([O-])=C1O.[Na+]", "note": "[sodium ascorbate]", "values": [{"measurement": "cell viability", "setting": "[2]; 143B cells, 0.5 mM sodium ascorbate alone", "result": "106% and 90% and 83% and 77% and 80% and 81% and 82%"}]}, {"smiles": "CC1=C(CC(=O)O)c2cc(F)ccc2/C1=C\\c1ccc([S+](C)[O-])cc1", "note": "(centres unmarked) [Sulindac]", "values": [{"measurement": "viability at 50 µM", "setting": "[1]; HOS", "result": 92, "unit": "%"}]}, {"smiles": "O=C(O)CC[C@H]1CC[C@@](c2cc(F)ccc2F)(S(=O)(=O)c2ccc(Cl)cc2)CC1", "note": "[MK0752]", "values": [{"measurement": "viability at 20 µM", "setting": "[1]; HOS", "result": 67, "unit": "%"}, {"measurement": "viability at 20 µM", "setting": "[2]; 143B", "result": 62, "unit": "%"}]}, {"smiles": "O=C(Nc1ccc([N+](=O)[O-])cc1Cl)c1cc(Cl)ccc1O", "note": "[Niclosamide]", "values": [{"measurement": "viability at 50 µM", "setting": "[1]; HOS", "result": 56, "unit": "%"}, {"measurement": "viability at 50 µM", "setting": "[2]; 143B", "result": 59, "unit": "%"}, {"measurement": "viability at 1 µM", "setting": "MC38 colon cancer cells; MC-38, 1 μM Niclosamide alone", "result": 82, "unit": "%"}, {"measurement": "viability at 1 µM", "setting": "DB lymphoma cells; 1 μM Niclosamide alone (low-dose)", "result": 57, "unit": "%"}, {"measurement": "viability at 2 µM", "setting": "DB lymphoma cells; 2 μM Niclosamide alone (high-dose)", "result": 52, "unit": "%"}]}, {"smiles": "Cn1c(=O)c2c(ncn2CC(=O)Nc2ccc(-c3ccccc3)nn2)n(C)c1=O", "note": "[ETC-159]", "values": [{"measurement": "viability at 20 µM", "setting": "[1]; HOS", "result": 67, "unit": "%"}, {"measurement": "viability at 20 µM", "setting": "[2]; 143B", "result": 60, "unit": "%"}]}, {"smiles": "CC(C)(C(=O)NCC(F)(F)C(F)(F)F)C(=O)N[C@@H]1C(=O)Nc2ccccc2-c2ccccc21", "note": "[RO4929097]", "values": [{"measurement": "viability at 10 µM", "setting": "[1]; HOS", "result": 56, "unit": "%"}, {"measurement": "viability at 10 µM", "setting": "[2]; 143B", "result": 58, "unit": "%"}]}, {"smiles": "Cc1cc(-c2ncc(CC(=O)Nc3ccc(-c4cnccn4)cn3)cc2C)ccn1", "note": "[LGK974]", "values": [{"measurement": "viability at 20 µM", "setting": "[1]; HOS", "result": 67, "unit": "%"}, {"measurement": "viability at 20 µM", "setting": "[2]; 143B", "result": 64, "unit": "%"}]}]}
